Source: PubChem BioAssay (NCI)
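Compound exposure: 48 hours, 5 concentrations, 96-well plates. TGI is the concentration that stops growth completely.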

Experiments:
Assay in all cases: inhibition of tumour cell growth, NCI panel, 48 h
[1] = tested on: SW-620 colon
[2] = tested on: SR leukemia
[3] = tested on: UACC-62 melanoma
[4] = tested on: M14 melanoma
[5] = tested on: T-47D breast
[6] = tested on: MDA-MB-435
[7] = tested on: RXF 393 renal
[8] = tested on: UO-31 renal
[9] = tested on: RPMI-8226 leukemia
[10] = tested on: HOP-62 NSCLC
[11] = tested on: SK-MEL-2 melanoma
[12] = tested on: SF-295 CNS
[13] = tested on: HCT-15 colon
[14] = tested on: HL-60(TB) leukemia
[15] = tested on: MCF7 breast
[16] = tested on: MOLT-4 leukemia
[17] = tested on: MALME-3M melanoma
[18] = tested on: A498 renal
[19] = tested on: MDA-N
[20] = tested on: NCI-H460 lung

SMILES	TGI [1] [µM]	TGI [2] [µM]	TGI [3] [µM]	TGI [4] [µM]	TGI [5] [µM]	TGI [6] [µM]	TGI [7] [µM]	TGI [8] [µM]	TGI [9] [µM]	TGI [10] [µM]	TGI [11] [µM]	TGI [12] [µM]	TGI [13] [µM]	TGI [14] [µM]	TGI [15] [µM]	TGI [16] [µM]	TGI [17] [µM]	TGI [18] [µM]	TGI [19] [µM]	TGI [20] [µM]
CC(C)=NOC(=O)CNC(=O)C(Cc1ccccc1)NC(=O)C(C)NC(=O)OC(C)(C)C (configuration not stated)	> 100	> 100	> 100	> 100	> 100	> 100	> 100	> 100	> 100	> 100	> 100	> 100	> 100	> 100	> 100	> 100	> 100	> 100	> 100	> 100
O=C(Cn1cc(Br)c(=O)[nH]c1=O)c1ccc(-c2ccccc2)cc1	> 100	> 100	> 100	> 24.1	> 100	> 55.3	> 100	> 100	> 100	39.2	> 17.3	> 100	39.7	> 35.1	> 100	> 27.5	> 100	> 100	> 100	> 48
CCCCCCCCC/C=C1/CC(CO)(COC(=O)CC(C(C)C)C(C)C)OC1=O (configuration not stated)	19	> 54.2	25.6	20.4	19	19.6	27.8	18.1	–	17.4	29.7	16.2	29	15.4	24.4	35.4	14.3	12.6	18.3	18.2
C[C@@H](C[C@H]1OC(C)(C)O[C@@H]1C(C)(C)O)[C@H]1CC=C2[C@]3(C)[C@H](O)C[C@H]4C(C)(C)[C@H](O)CC[C@]4(C)[C@H]3CC[C@]21C	19.4	11.3	34	17.6	43.2	17.7	12.1	23.7	12.8	20.7	24.7	18.2	14.9	7.88	12.8	14.7	26.3	18.5	16.8	14.2
O=c1[nH]c(SCc2cccc([N+](=O)[O-])c2)nc2nc[nH]c12	> 100	> 100	> 100	> 100	> 100	> 100	> 100	> 100	> 100	> 100	> 100	> 100	> 100	> 100	> 100	> 100	> 100	> 100	> 100	> 100
CC(Oc1ccc(Oc2cnc3ccc(Cl)cc3n2)cc1)C(=O)O (configuration not stated)	> 100	> 100	> 100	> 100	> 100	> 100	> 100	> 100	> 100	> 100	> 100	> 100	> 100	> 100	> 100	> 100	> 100	> 100	> 100	> 100
Clc1ccc(-c2cc(-c3cc4cc(Br)ccc4nc3Cl)on2)cc1	27.5	> 50	> 50	37.9	> 50	32.1	43.9	> 50	41.7	> 50	21.9	> 50	> 50	4.89	43.8	47.3	> 50	41.9	30.6	22.6
COC1(C2c3ccccc3CCN2C(=O)OC(C)(C)C)C(=O)C(c2ccccc2)=C1N(C)C (configuration not stated)	> 100	> 100	> 100	> 100	> 100	61.6	> 100	64.4	–	> 100	66.5	> 100	> 100	79.8	> 100	> 100	93.8	62.6	64	> 100
CO/N=C\c1ccc2c(c1)Sc1ccccc1O2	> 100	> 100	> 100	> 100	> 100	> 100	> 100	> 100	> 100	> 100	> 100	> 100	> 100	> 100	> 100	> 100	> 100	> 100	> 100	> 100
O=C1NC(Nc2ccccc2)=N/C1=C\c1c(Cl)cccc1Cl	> 100	> 100	> 100	83.5	> 100	> 100	45.3	18.4	> 100	> 100	49	> 100	> 100	> 100	56	64.1	56.5	> 100	60.9	> 100
CCOC(=O)C(=CNc1ccc(N(C2=NCC(C)S2)c2ccc(F)c(Cl)c2)cc1)C(=O)OCC (configuration not stated)	57.1	43.1	–	35.4	49.5	55.9	21.3	38.6	72.8	52	43.7	64.2	36.1	52.9	53.9	41.6	39.4	41.1	43.1	49.7
C[C@H]1C2Cc3cc(O)ccc3[C@@]1(C)CCN2CCc1ccc(N)cc1	36	72.8	> 100	32.4	> 100	32.5	> 100	> 100	> 100	33.4	> 100	53.7	33.3	> 100	28.4	> 100	34.8	> 100	38.4	> 100
